According to ChEMBL document CHEMBL5226297, “Small-Molecule Drug Discovery in Triple Negative Breast Cancer: Current Situation and Future Directions” (J Med Chem, 2021):
≈ marks a conversion by molar mass, not a printed value.

How the values were obtained:
[1] = test system: Hs-578T; assay: Anticancer activity against human Hs-578T cells assessed as cell growth inhibition incubated for 24 hrs by ALDEFLUOR assay; format: functional, cell-based
[2] = test system: MDA-MB-231; assay: cells; conditions: Homo sapiens, MDA-MB-231, 24 h
[3] = test system: Hs-578T; assay: Anticancer activity against human Hs-578T cells assessed as cell growth inhibition incubated for 4 to 10 days by MTT assay; format: functional, cell-based
[4] = test system: BT-549; assay: Anticancer activity against human BT-549 cells assessed as cell growth inhibition incubated for 4 to 10 days by MTT assay; format: functional, cell-based
[5] = test system: MDA-MB-231; assay: Anticancer activity against human MDA-MB-231 cells assessed as cell growth inhibition incubated for 4 to 10 days by MTT assay; format: functional, cell-based
[6] = test system: HCC38; assay: Anticancer activity against human HCC38 cells assessed as cell growth inhibition incubated for 4 to 10 days by MTT assay; format: functional, cell-based
[7] = test system: HCC1806; assay: Anticancer activity against human HCC1806 cells assessed as cell growth inhibition incubated for 4 to 10 days by MTT assay; format: functional, cell-based
[8] = test system: HCC1806; assay: Anticancer activity against human HCC1806 cells assessed as cell growth inhibition incubated for 72 hrs by CellTiter-Blue assay; format: functional, cell-based; conditions: HCC1806, 72 h
[9] = test system: MDA-MB-231; assay: Anticancer activity against human MDA-MB-231 cells assessed as cell growth inhibition incubated for 72 hrs by CellTiter-Blue assay; format: functional, cell-based; conditions: MDA-MB-231, 72 h
[10] = test system: BT-20; assay: Anticancer activity against human BT-20 cells assessed as cell growth inhibition by MTT assay; format: functional, cell-based
[11] = molecular target: T1, Aurora kinase B (Homo sapiens, UniProt Q96GD4); assay: Inhibition of human Aurora B kinase expressed in MDA-MB-231 cells; format: cell-based
[12] = molecular target: Aurora kinase A (Homo sapiens, UniProt O14965); assay: Inhibition of human Aurora A kinase expressed in MDA-MB-468 cells; format: cell-based
[13] = molecular target: T2, Insulin-like growth factor 1 receptor (Homo sapiens, UniProt P08069); assay: Inhibition of human IGF1R expressed in SUM149 cells; format: cell-based, SUM149PT
[14] = molecular target: T1, Aurora kinase B; assay: Inhibition of human Aurora B kinase expressed in SUM149 cells; format: cell-based, SUM149PT
[15] = molecular target: T1, Aurora kinase B; assay: Inhibition of human Aurora B kinase expressed in MDA-MB-468 cells; format: cell-based
[16] = molecular target: T2, Insulin-like growth factor 1 receptor; assay: Inhibition of human IGF1R expressed in MDA-MB-468 cells; format: cell-based
[17] = test system: HCC1143; assay: Anticancer activity against human HCC1143 cells assessed as cell growth inhibition; format: functional, cell-based
[18] = test system: HCC70; assay: Anticancer activity against human HCC70 cells assessed as cell growth inhibition; format: functional, cell-based
[19] = test system: MDA-MB-231; assay: Anticancer activity against human MDA-MB-231 cells assessed as cell growth inhibition; format: functional, cell-based
[20] = test system: MDA-MB-468; assay: Anticancer activity against human MDA-MB-468 cells assessed as cell growth inhibition; format: functional, cell-based
[21] = test system: HCC1187; assay: Anticancer activity against human HCC1187 cells assessed as cell growth inhibition; format: functional, cell-based
[22] = test system: HCC1937; assay: Anticancer activity against human HCC1937 cells assessed as cell growth inhibition; format: functional, cell-based
[23] = test system: SUM149PT; assay: Anticancer activity against human SUM149 cells assessed as cell growth inhibition; format: functional, cell-based
[24] = test system: Hs-578T; assay: Anticancer activity against human Hs-578T cells assessed as cell growth inhibition; format: functional, cell-based
[25] = test system: MDA-MB-231; assay: Anticancer activity against human MDA-MB-231 cells assessed as cell growth inhibition incubated for 3 to 5 days by MTT assay; format: functional, cell-based
[26] = molecular target: Thioredoxin (Homo sapiens, UniProt P10599); assay: Inhibition of human TXN incubated for 30 mins by fluorescence based plate reader analysis
[27] = test system: HCC1806; assay: Anticancer activity against human HCC1806 cells assessed as cell growth inhibition; format: functional
[28] = test system: MDA-MB-436; assay: Anticancer activity against human MDA-MB-436 cells assessed as cell growth inhibition incubated for 24 hrs by CCK8 assay; format: functional, cell-based; conditions: MDA-MB-436, 24 h
[29] = test system: MDA-MB-231; assay: Anticancer activity against human MDA-MB-231 cells assessed as cell growth inhibition incubated for 24 hrs by CCK8 assay; format: functional, cell-based; conditions: MDA-MB-231, 24 h
[30] = test system: BT-549; assay: Anticancer activity against human BT-549 cells assessed as cell growth inhibition incubated for 24 hrs by CCK8 assay; format: functional, cell-based; conditions: BT-549, 24 h
[31] = test system: MDA-MB-453; assay: Anticancer activity against human MDA-MB-453 cells assessed as cell growth inhibition; format: functional, cell-based
[32] = test system: HCC38; assay: Anticancer activity against human HCC38 cells assessed as cell growth inhibition; format: functional, cell-based
[33] = test system: MCF7; assay: Anticancer activity against human MCF7 cells assessed as cell growth inhibition; format: functional, cell-based

T1 sequence (Q96GD4 whole entry): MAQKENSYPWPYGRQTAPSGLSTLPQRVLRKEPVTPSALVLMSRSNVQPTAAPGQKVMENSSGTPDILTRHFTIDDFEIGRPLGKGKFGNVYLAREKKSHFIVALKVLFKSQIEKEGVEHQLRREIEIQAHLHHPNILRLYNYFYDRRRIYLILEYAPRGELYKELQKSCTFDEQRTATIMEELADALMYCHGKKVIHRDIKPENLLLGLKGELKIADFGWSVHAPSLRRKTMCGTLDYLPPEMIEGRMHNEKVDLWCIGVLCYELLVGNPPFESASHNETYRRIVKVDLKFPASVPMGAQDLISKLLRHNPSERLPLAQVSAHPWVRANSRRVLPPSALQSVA
T2 sequence (P08069 31-736 limits assumed): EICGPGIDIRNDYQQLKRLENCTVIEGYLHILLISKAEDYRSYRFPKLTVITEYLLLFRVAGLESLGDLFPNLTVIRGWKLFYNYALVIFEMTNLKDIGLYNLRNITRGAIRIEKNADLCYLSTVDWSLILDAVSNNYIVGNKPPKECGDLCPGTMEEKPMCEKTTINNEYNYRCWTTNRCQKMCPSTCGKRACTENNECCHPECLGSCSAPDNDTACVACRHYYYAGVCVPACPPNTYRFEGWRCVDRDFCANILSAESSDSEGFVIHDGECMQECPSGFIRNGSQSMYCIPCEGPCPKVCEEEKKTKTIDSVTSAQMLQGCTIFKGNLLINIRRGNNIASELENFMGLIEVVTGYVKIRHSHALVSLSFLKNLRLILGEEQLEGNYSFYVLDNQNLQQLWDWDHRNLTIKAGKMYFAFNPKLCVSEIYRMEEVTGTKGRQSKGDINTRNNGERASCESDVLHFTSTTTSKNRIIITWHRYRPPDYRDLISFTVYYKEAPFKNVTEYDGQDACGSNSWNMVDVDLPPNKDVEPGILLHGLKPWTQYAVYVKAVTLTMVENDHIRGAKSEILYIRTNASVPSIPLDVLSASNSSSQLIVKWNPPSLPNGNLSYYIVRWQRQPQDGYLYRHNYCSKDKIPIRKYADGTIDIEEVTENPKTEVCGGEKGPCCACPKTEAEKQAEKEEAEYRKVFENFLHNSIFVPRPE
T2 sequence (P08069 741-1367 limits assumed): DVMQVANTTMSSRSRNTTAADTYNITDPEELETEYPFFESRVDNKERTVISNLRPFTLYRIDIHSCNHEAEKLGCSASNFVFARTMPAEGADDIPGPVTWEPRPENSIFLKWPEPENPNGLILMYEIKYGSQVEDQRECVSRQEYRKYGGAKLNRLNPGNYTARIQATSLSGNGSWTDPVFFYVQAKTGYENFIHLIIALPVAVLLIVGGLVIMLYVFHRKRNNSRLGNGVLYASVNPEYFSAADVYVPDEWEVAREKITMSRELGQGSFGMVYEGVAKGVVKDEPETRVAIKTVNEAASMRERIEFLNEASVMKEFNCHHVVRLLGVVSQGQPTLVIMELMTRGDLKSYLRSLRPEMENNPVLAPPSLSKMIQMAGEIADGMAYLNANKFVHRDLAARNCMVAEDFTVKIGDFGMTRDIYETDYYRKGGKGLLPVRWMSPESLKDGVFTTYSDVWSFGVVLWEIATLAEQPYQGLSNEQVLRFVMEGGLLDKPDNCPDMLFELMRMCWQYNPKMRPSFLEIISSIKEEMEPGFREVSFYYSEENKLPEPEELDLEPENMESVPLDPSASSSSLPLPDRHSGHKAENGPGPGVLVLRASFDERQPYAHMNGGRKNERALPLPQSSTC
Chain of Thioredoxin (P10599 whole entry): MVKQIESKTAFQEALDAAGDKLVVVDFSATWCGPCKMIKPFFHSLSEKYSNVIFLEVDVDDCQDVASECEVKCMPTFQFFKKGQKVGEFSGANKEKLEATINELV
Chain of Aurora kinase A (O14965 whole entry): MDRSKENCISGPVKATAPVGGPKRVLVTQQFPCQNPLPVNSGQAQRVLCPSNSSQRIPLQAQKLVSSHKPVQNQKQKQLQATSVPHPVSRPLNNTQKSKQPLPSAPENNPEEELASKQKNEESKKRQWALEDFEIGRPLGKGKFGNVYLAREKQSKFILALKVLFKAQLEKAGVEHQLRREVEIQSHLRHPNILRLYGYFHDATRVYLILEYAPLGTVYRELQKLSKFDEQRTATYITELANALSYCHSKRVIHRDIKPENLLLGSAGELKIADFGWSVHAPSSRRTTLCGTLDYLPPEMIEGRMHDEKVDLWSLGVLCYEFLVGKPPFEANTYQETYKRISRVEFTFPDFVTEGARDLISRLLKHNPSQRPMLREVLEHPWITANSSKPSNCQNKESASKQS

## Nc1ccccc1NC(=O)c1ccc(CNC(=O)OCc2cccnc2)cc1 [ENTINOSTAT]
[1]
  IC50: 1000 nM
[2]
  IC50: 1000 nM

## Cc1sc2c(c1C)C(c1ccc(Cl)cc1)=N[C@@H](CC(=O)NCCCCCCCCCCNC(=O)C[C@@H]1N=C(c3ccc(Cl)cc3)c3c(sc(C)c3C)-n3c(C)nnc31)c1nnc(C)n1-2
[3]
  IC50: 4.1 nM
[4]
  IC50: 6.8 nM
[5]
  IC50: 10.3 nM
[6]
  IC50: 15 nM
[7]
  IC50: 19 nM

## O=C(Cc1cccc(OC(F)(F)F)c1)Nc1ccc(CCCCc2nnc(NC(=O)Cc3ccccn3)s2)nn1
[8]
  IC50: 100 nM
[9]
  IC50: 50 nM

## CN(c1ccccc1CNc1nc(Nc2ccc3c(c2)CC(=O)N3)ncc1C(F)(F)F)S(C)(=O)=O
[10]
  IC50: 6200 nM

## Cc1ccsc1C(=O)Nc1cc(CN2CCN(C(=O)CO)CC2)ccc1/C=C/c1n[nH]c2ccccc12 [KW-2450]
[11]
  IC50: 66 nM
[12]
  IC50: 215 nM
[13]
  IC50: < 2 nM
[14]
  IC50: 272 nM
[15]
  IC50: 478 nM
[16]
  IC50: < 2 nM

## N#CCNC(=O)c1ccc(-c2ccnc(Nc3ccc(N4CCOCC4)cc3)n2)cc1 [MOMELOTINIB]
[17]
  IC50: 5000 nM
[18]; Homo sapiens, HCC70
  IC50: 10000 nM
[19]
  IC50: 1000 nM
[20]
  IC50: 1000 nM
[21]
  IC50: 1000 nM

## Cc1nc(Nc2ncc(C(=O)Nc3cc(NC(=O)c4cccc(C(F)(F)F)c4)ccc3C)s2)cc(N2CCN(CCO)CC2)n1
[22]
  IC50: 120 nM
[23]
  IC50: 230 nM
[24]
  IC50: 9.1 nM
[19]
  IC50: 6.1 nM

## CCOC(=O)c1cnn(-c2ccc(NC(=O)C(Cl)=C(Cl)Cl)cc2)c1C(F)(F)F
[25]
  IC50: 1000 nM

## Fc1ccc(-c2ccc(Nc3nc(Cl)nc(Cl)n3)cc2)cc1
[26]
  IC50: 10000 nM

## Nc1ccc(-c2ccc3ncc4ccc(=O)n(-c5cccc(C(F)(F)F)c5)c4c3c2)cn1
[27]
  GR50: 0.01 µM
[18]
  GR50: 0.01 µM

## O=C1OC(=O)C2C3CCC(O3)C12 (configuration not stated)
[28]
  IC50: 17.7 µg/mL (≈ 105 µM)
[29]
  IC50: 21.8 µg/mL (≈ 130 µM)
[30]
  IC50: 12.8 µg/mL (≈ 76.3 µM)

## CCN(CC)c1ccc(CNc2ccc(Cl)cc2)cc1
[31]
  EC50: 2510 nM
[22]
  EC50: 440 nM
[32]
  EC50: 1200 nM
[20]
  EC50: 2500 nM
[33]
  EC50: 770 nM
